Measured values taken from US12611446B2, “Cannabinoid product for improving musculoskeletal health” (Lonza Greenwood LLC, priority 2019, dated 2026).
Marks after values point to notes of the source that are not given here.

Columns and labels:
[1] = system: Sodium Monoiodoacetate Induced Osteoarthritis(OA) in Rats; experiment: Effect of UC-II undenatured Type II collagen and cannabidiol on sodium monoiodoacetate (MIA) induced osteoarthritis in rats: metabolic, inflammatory and oxidative stress markers; type: in vivo; conditions: MIA-induced OA male Wistar rats, 30 days; for COMP (cartilage oligomeric matrix protein) / CRP (c-reactive protein) / IL-1β (interleukin-1β) / IL-6 (interleukin-6) / PGE2 (prostaglandin E2) / TNF-α (tumor necrosis factor α): serum
Method: OA was induced in male Wistar rats by intra-articular injection of sodium monoiodoacetate (MIA: 1 mg/kg). Treatment was started a week before injection with MIA and lasted 30 days. Biomarker testing was conducted prior to 24 days post MIA.

[2] = system: Sodium Monoiodoacetate Induced Osteoarthritis(OA) in Rats; experiment: Effect of UC-II undenatured Type II collagen and cannabigerol on sodium monoiodoacetate (MIA) induced osteoarthritis in rats: metabolic, inflammatory and oxidative stress markers; type: in vivo; conditions: MIA-induced OA female rats, 30 days
Method: […] Treatment was started a week before injection with MIA and lasted 30 days. Biomarker testing was conducted prior to 24 days post MIA.
The dosage levels were the same.

[3] = CBD1 = CBD 1.62 mg/kg (combination: + UC-II 4 mg/kg)
[4] = CBD2 = CBD 3.24 mg/kg (combination: + UC-II 4 mg/kg)
[5] = CBGI = CBG 1.62 mg/kg (combination: + UC-II 4 mg/kg)
[6] = CBGII = CBG 3.24 mg/kg (combination: + UC-II 4 mg/kg)

C=C(C)[C@@H]1CCC(C)=C[C@H]1c1c(O)cc(CCCCC)cc1O [CBD, cannabidiol]
ALB (Albumin) [1, 3]: 3.59 ± 0.13^ab g/dL | ALP (Alkaline phosphatase) [1, 3]: 137.14 ± 8.95^a U/L | ALT (Alanine aminotransferase) [1, 3]: 69.14 ± 7.63 U/L | AST (Aspartate aminotransferase) [1, 3]: 108.43 ± 13.4 U/L | BUN (Blood Urine Nitrogen) [1, 3]: 23.57 ± 2.27 mg/dL | CAT (catalase) [1, 3]: 125.79 ± 7.41^d U/mL | CR (Creatine) [1, 3]: 0.45 ± 0.11 mg/dL | GLOB (Globulin) [1, 3]: 3.16 ± 0.05^b g/dL | GLU (Glucose) [1, 3]: 112.43 ± 11.52 mg/dL | MDA (malondialdehyde) [1, 3]: 1.28 ± 0.08^b nmol/mL | OCN (osteocalcin) [1, 3]: 28.20 ± 1.74^e μg/mL | SOD (superoxide dismutase) [1, 3]: 50.00 ± 1.82^de U/mL | TBIL (Total Bilirubin) [1, 3]: 0.20 ± 0.01 mg/dL | TP (Total Protein) [1, 3]: 6.71 ± 0.17 g/dL | ALB (Albumin) [1, 4]: 3.57 ± 0.14^ab g/dL | ALP (Alkaline phosphatase) [1, 4]: 140.43 ± 8.40^a U/L | ALT (Alanine aminotransferase) [1, 4]: 70.29 ± 5.56 U/L | AST (Aspartate aminotransferase) [1, 4]: 110.29 ± 12.58 U/L | BUN (Blood Urine Nitrogen) [1, 4]: 24.23 ± 1.27 mg/dL | CAT (catalase) [1, 4]: 139.36 ± 3.44b^c U/mL | CR (Creatine) [1, 4]: 0.45 ± 0.08 mg/dL | GLOB (Globulin) [1, 4]: 3.27 ± 0.23^ab g/dL | GLU (Glucose) [1, 4]: 109.86 ± 5.81 mg/dL | GSH-Px (glutathione peroxidase) [1, 4]: 85.31 ± 3.85^bc U/mL | MDA (malondialdehyde) [1, 4]: 1.24 ± 0.16^b nmol/mL | OCN (osteocalcin) [1, 4]: 33.35 ± 3.18^d μg/mL | SOD (superoxide dismutase) [1, 4]: 58.04 ± 2.76^c U/mL | TBIL (Total Bilirubin) [1, 4]: 0.20 ± 0.01 mg/dL | TP (Total Protein) [1, 4]: 6.87 ± 0.37 g/dL | COMP (cartilage oligomeric matrix protein) [1, 3]: 21.22 ± 1.77^c ng/mL | CRP (c-reactive protein) [1, 3]: 6.39 ± 1.06^c mg/L | IL-1β (interleukin-1β) [1, 3]: 34.92 ± 2.23^bc pg/mL | IL-6 (interleukin-6) [1, 3]: 30.83 ± 2.17^c pg/mL | PGE2 (prostaglandin E2) [1, 3]: 504.41 ± 37.35^bc pg/mL | TNF-α (tumor necrosis factor α) [1, 3]: 46.58 ± 0.87^c pg/mL | COMP (cartilage oligomeric matrix protein) [1, 4]: 16.32 ± 1.91^d ng/mL | CRP (c-reactive protein) [1, 4]: 3.95 ± 0.20^d mg/L | IL-1β (interleukin-1β) [1, 4]: 31.94 ± 1.91^cd pg/mL | IL-6 (interleukin-6) [1, 4]: 28.65 ± 2.17^c pg/mL | PGE2 (prostaglandin E2) [1, 4]: 469.24 ± 11.42^cd pg/mL | TNF-α (tumor necrosis factor α) [1, 4]: 41.97 ± 1.31^c pg/mL

CCCCCc1cc(O)c(C/C=C(\C)CCC=C(C)C)c(O)c1 [CBG, cannabigerol]
CAT (catalase) [2, 5]: 136.44 ± 4.10^bc U/mL | COMP (cartilage oligometrix matrix protein) [2, 5]: 21.68 ± 2.13^b ng/mL | CRP (c-reactive protein) [2, 5]: 7.04 ± 0.85^b mg/L | GSH-Px (glutathione peroxidase) [2, 5]: 75.87 ± 4.87^bc U/mL | IL-1β (interleukin-1β) [2, 5]: 35.08 ± 3.41^b pg/mL | IL-6 (interleukin-6) [2, 5]: 33.14 ± 4.07^b pg/mL | IL-10 (interleukin-10) [2, 5]: 47.42 ± 5.77^d pg/mL | MDA (malondialdehyde) [2, 5]: 1.57 ± 0.07^b nmol/mL | Osteocalcin [2, 5]: 28.15 ± 1.34^ef μg/mL | PGE2 (prostaglandin E2) [2, 5]: 483 ± 36.86^b pg/mL | SOD (superoxide dismutase) [2, 5]: 49.13 ± 5.76^bc U/mL | TNF-α (tumor necrosis factor α) [2, 5]: 56.95 ± 5.61^b pg/mL | CAT (catalase) [2, 6]: 138.82 ± 2.71^b U/mL | COMP (cartilage oligometrix matrix protein) [2, 6]: 20.42 ± 2.16^b ng/mL | CRP (c-reactive protein) [2, 6]: 6.45 ± 0.82^bc mg/L | GSH-Px (glutathione peroxidase) [2, 6]: 77.29 ± 5.83^b U/mL | IL-1β (interleukin-1β) [2, 6]: 34.05 ± 2.80^b pg/mL | IL-6 (interleukin-6) [2, 6]: 32.41 ± 3.81^b pg/mL | IL-10 (interleukin-10) [2, 6]: 46.17 ± 4.91^d pg/mL | MDA (malondialdehyde) [2, 6]: 1.60 ± 0.07^b nmol/mL | Osteocalcin [2, 6]: 30.82 ± 1.35^de μg/mL | PGE2 (prostaglandin E2) [2, 6]: 473.71 ± 40.89^b pg/mL | SOD (superoxide dismutase) [2, 6]: 51.13 ± 3.75^bc U/mL | TNF-α (tumor necrosis factor α) [2, 6]: 54.32 ± 5.01^b pg/mL
